The test system of data set [1] is Candida albicans. Briefly: in vitro broth dilution MIC against Candida albicans. Particulars: 26 strains. Format: cell-based. Background: Dilution methods test growth across graded concentrations, often in twofold steps.
Description: (§1) The in vitro antifungal activity tests were performed via conventional broth dilution methods in Sabouraud dextrose broth ("SDB") medium and Eagles Minimum Essential Medium ("EMEM") against a large number of fungi. Minimum Inhibitory Concentrations ("MICs") were measured after 24, 48 and 72 hour tests. In many cases, Minimum Fungicidial Concentrations ("MFCS") were measured after 48 and 72 hours.
Data set [2] concerns Candida krusei. Briefly: in vitro broth dilution MFC against Candida krusei. In kind it is cell-based. Particulars: 16 strains.
Description: as §1
Data set [3] deals with Candida glabrata. Briefly: in vitro broth dilution MFC against Candida glabrata. In kind it is cell-based. The following applies: 9 strains.
Description: as §1
Data set [4] concerns Dermatophytes. Kind of data set: in vitro broth dilution MIC against Dermatophytes. The following applies: 6 strains. Format: cell-based, T. rubrum, T. mentagrophytes, and T. tonsurans.
Data set [5] has as its system Aspergillus. Kind of data set: in vitro broth dilution MIC against Aspergillus. The following applies: 37 strains. Format: cell-based, Aspergillus flavus, fumigatus and other species.
Description: as §1
The subject of data set [6] is Candida tropicalis & stellatoidea. Particulars: 5 strains.
Description: as §1
The subject of data set [7] is Candida albicans. The following applies: 26 strains.
Description: as §1
Data set [8] relates to Aspergillus. Briefly: in vitro broth dilution MFC against Aspergillus. Particulars: 37 strains. Format: cell-based, Aspergillus flavus, fumigatus and other species.
Description: as §1
Data set [9] has as its system Candida krusei. Kind of data set: in vitro broth dilution MIC against Candida krusei. In kind it is cell-based. Particulars: 16 strains.
Description: as §1
The test system of data set [10] is Candida glabrata. Kind of data set: in vitro broth dilution MIC against Candida glabrata. Format: cell-based. Particulars: 9 strains.
Description: as §1
The subject of data set [11] is Candida tropicalis & stellatoidea. Briefly: in vitro broth dilution MIC against Candida tropicalis & stellatoidea. Format: cell-based. Particulars: 5 strains.
Description: as §1
Data set [12] relates to Cryptococcus neoformans. Briefly: in vitro broth dilution MFC against Cryptococcus neoformans. In kind it is cell-based. Particulars: 3 strains.
Description: as §1
In data set [13] the test system is Dermatophytes. Briefly: in vitro broth dilution MFC against Dermatophytes. In kind it is cell-based, T. rubrum, T. mentagrophytes, and T. tonsurans. The following applies: 6 strains.
Description: as §1
Data set [14] has as its system Cryptococcus neoformans. Briefly: in vitro broth dilution MIC against Cryptococcus neoformans. Format: cell-based. Particulars: 3 strains.
Description: as §1
The test system of data set [15] is cytochrome P-450 liver drug metabolizing enzymes. Kind of data set: induction of liver drug metabolizing enzymes in an in vivo rat model. Particulars: oral administration.
Data set [16] is described as follows: serum levels, half life and tissue distribution after oral dosing. Format: in vivo, mice, rats, dogs and monkeys.

Data on 4 compounds can be found in patent publication US5714490A, “Tetrahydrofuran antifungals” (Schering Corporation, priority 1995, dated 1998).

For the compound `CC[C@H]([C@H](C)O)n1ncn(-c2ccc(N3CCN(c4ccc(OC[C@@H]5CO[C@@](Cn6cncn6)(c6ccc(F)cc6F)C5)cc4)CC3)cc2)c1=O`, the “PERCENTAGE OF STRAINS WITH MICs ≤1 MCG/ML” value with Candida albicans [1] was 100 PERCENTAGE; with Dermatophytes [4] it was 100 PERCENTAGE; in the data set with Aspergillus [5], 100 PERCENTAGE; in the data set on Candida krusei [9] it was 100 PERCENTAGE; with Candida glabrata [10], 22 PERCENTAGE; in data set [11], 100 PERCENTAGE. Further, the “PERCENTAGE OF STRAINS WITH MICs ≤1 MCG/ML” value with Cryptococcus neoformans [14] is on record as 100 PERCENTAGE. For the same compound, the “PERCENTAGE OF STRAINS WITH MFCs ≤1 MCG/ML” value turned out to be 88 PERCENTAGE in the data set with Candida krusei [2]; 22 PERCENTAGE in the data set on Candida glabrata [3]; 100 PERCENTAGE in [6]; 100 PERCENTAGE in the data set on Candida albicans [7]; 50 PERCENTAGE in the data set with Aspergillus [8]; 100 PERCENTAGE in the data set on Cryptococcus neoformans [12]. Besides, in the data set on Dermatophytes [13], the “PERCENTAGE OF STRAINS WITH MFCs ≤1 MCG/ML” value came out at 67 PERCENTAGE.

Turning to `CC[C@@H]([C@@H](C)O)n1ncn(-c2ccc(N3CCN(c4ccc(OC[C@@H]5CO[C@@](Cn6cncn6)(c6ccc(F)cc6F)C5)cc4)CC3)cc2)c1=O`, the “PERCENTAGE OF STRAINS WITH MFCs ≤1 MCG/ML” value in the data set with Candida krusei [2] was 100 PERCENTAGE; in the data set with Aspergillus [8], 89 PERCENTAGE; in the data set on Dermatophytes [13], 100 PERCENTAGE. In addition, the “PERCENTAGE OF STRAINS WITH MICs ≤1 MCG/ML” value in the data set on Candida glabrata [10] is reported as 33 PERCENTAGE.

In the case of `CC[C@@H]([C@H](C)O)n1ncn(-c2ccc(N3CCN(c4ccc(OC[C@@H]5CO[C@@](Cn6cncn6)(c6ccc(F)cc6F)C5)cc4)CC3)cc2)c1=O` [drawing 20], the “induction of cytochrome P-450 liver drug metabolizing enzymes” value in data set [15] is on record as “not inducers”. In data set [16] (O.D. dosing), the serum half lives result was “very long serum half lives” and the tissue distribution entry is “good tissue distribution”. Besides, in [16] (oral dosing, methyl cellulose formulation, mice, rats, dogs and monkeys), the “serum levels compared to azoles of similiar structure” value is “consistently higher serum levels”.

On to `CC[C@@H]([C@H](C)O)n1ncn(-c2ccc(N3CCN(c4ccc(OC[C@@H]5CO[C@@](Cn6cncn6)(c6ccc(F)cc6F)C5)cc4)CC3)cc2)c1=O` [drawing 22], for which the “PERCENTAGE OF STRAINS WITH MFCs ≤1 MCG/ML” value in the data set on Candida krusei [2] was 94 PERCENTAGE; in the data set on Aspergillus [8], 62 PERCENTAGE; in the data set with Dermatophytes [13], 83 PERCENTAGE.
